This note sets out measurements from ChEMBL document CHEMBL5385915 (J Med Chem, 2024).

The structures appear in SMILES notation. Calls of active or inactive are those of the source. The rule behind the calls is not given here.

The test system of test [1] is Mycobacterium tuberculosis variant bovis BCG. Briefly: Inhibition of late-stage mycolic acid biosynthesis in Mycobacterium bovis BCG at 5 times MIC incubated for 6 hrs by TLC based autoradiography analysis. Format: functional, organism-based.
Test [2] has as its system Mycobacterium tuberculosis variant bovis. Briefly: Downregulation of inhA gene expression in Mycobacterium bovis BCG at 1 times MIC incubated for 8 hrs by RNA-sequencing analysis. It is filed as functional.
Test [3] has the same test system. Briefly: Downregulation of fbpD gene expression in Mycobacterium bovis BCG at 1 times MIC incubated for 8 hrs by RNA-sequencing analysis. Format: functional.
Test [4] has the same test system. As to the kind of experiment: Effect on nuoA-N gene expression in Mycobacterium bovis BCG at 1 times MIC incubated for 8 hrs by RNA-sequencing analysis. It is filed as functional.
For test [5] the test system is unchanged. Briefly: Effect on narG-J gene expression in Mycobacterium bovis BCG at 1 times MIC incubated for 8 hrs by RNA-sequencing analysis. It is filed as functional.
Test [6] has the same test system. As to the kind of experiment: Upregulation of mmpL5 gene expression in Mycobacterium bovis BCG at 1 times MIC incubated for 8 hrs by RNA-sequencing analysis. Format: functional.
Test [7] has the same test system. Briefly: Downregulation of acpM gene expression in Mycobacterium bovis BCG at 1 times MIC incubated for 8 hrs by RNA-sequencing analysis. Format: functional.
The test system is the same in test [8]. Briefly: Downregulation of fbpA gene expression in Mycobacterium bovis BCG at 1 times MIC incubated for 8 hrs by RNA-sequencing analysis. Format: functional.
The test system is the same in test [9]. Briefly: Upregulation of ideR gene expression in Mycobacterium bovis BCG at 1 times MIC incubated for 8 hrs by RNA-sequencing analysis. Format: functional.
For test [10] the test system is unchanged. Briefly: Upregulation of zur gene expression in Mycobacterium bovis BCG at 1 times MIC incubated for 8 hrs by RNA-sequencing analysis. It is filed as functional.
The test system is the same in test [11]. Briefly: Downregulation of desA2 gene expression in Mycobacterium bovis BCG at 1 times MIC incubated for 8 hrs by RNA-sequencing analysis. It is filed as functional.
Test [12] shares this test system. Briefly: Downregulation of mmaA2 gene expression in Mycobacterium bovis BCG at 1 times MIC incubated for 8 hrs by RNA-sequencing analysis. It is filed as functional.
For test [13] the test system is unchanged. As to the kind of experiment: Upregulation of mbtD gene expression in Mycobacterium bovis BCG at 1 times MIC incubated for 8 hrs by RNA-sequencing analysis. Format: functional.
In test [14] the test system is Mycobacterium tuberculosis variant bovis BCG. As to the kind of experiment: Inhibition of mycolic acid biosynthesis in Mycobacterium bovis BCG assessed as decrease in keto mycolic acid transfer onto cell wall arabinogalactan at 0.5 times MIC incubated for 12 hrs in presence of [14C]acetate by TLC based autoradiography analysis. Format: functional, organism-based.

Test [15] deals with Mycobacterium tuberculosis variant bovis. Briefly: Upregulation of tcrYX gene expression in Mycobacterium bovis BCG at 1 times MIC incubated for 8 hrs by RNA-sequencing analysis. It is filed as functional.
For test [16] the test system is unchanged. Briefly: Effect on cydA-D gene expression in Mycobacterium bovis BCG at 1 times MIC incubated for 8 hrs by RNA-sequencing analysis. Format: functional.
For test [17] the test system is unchanged. Briefly: Upregulation of cmtR gene expression in Mycobacterium bovis BCG at 1 times MIC incubated for 8 hrs by RNA-sequencing analysis. Format: functional.
The test system is the same in test [18]. As to the kind of experiment: Upregulation of mmpS5 gene expression in Mycobacterium bovis BCG at 1 times MIC incubated for 8 hrs by RNA-sequencing analysis. Format: functional.
Test [19] has the same test system. As to the kind of experiment: Downregulation of mmaA3 gene expression in Mycobacterium bovis BCG at 1 times MIC incubated for 8 hrs by RNA-sequencing analysis. It is filed as functional.
For test [20] the test system is unchanged. As to the kind of experiment: Effect on qcrA-C gene expression in Mycobacterium bovis BCG at 1 times MIC incubated for 8 hrs by RNA-sequencing analysis. It is filed as functional.
The test system is the same in test [21]. Briefly: Upregulation of mbtC gene expression in Mycobacterium bovis BCG at 1 times MIC incubated for 8 hrs by RNA-sequencing analysis. Format: functional.
Test [22] deals with Mycobacterium tuberculosis variant bovis BCG. Briefly: Inhibition of cell wall biosynthesis in Mycobacterium bovis BCG assessed as formation of cytoplasmic membrane phospholipids at 0.5 times MIC incubated for 12 hrs in presence of [14C]acetate by TLC based autoradiography analysis. Format: functional, organism-based.
For test [23] the test system is unchanged. Briefly: Inhibition of mycolic acid biosynthesis in Mycobacterium bovis BCG assessed as decrease in alpha mycolic acid transfer onto cell wall arabinogalactan at 0.5 times MIC incubated for 12 hrs in presence of [14C]acetate by TLC based autoradiography analysis. Format: functional, organism-based.
Test [24] relates to Mycobacterium tuberculosis variant bovis. As to the kind of experiment: Downregulation of fabG1 gene expression in Mycobacterium bovis BCG at 1 times MIC incubated for 8 hrs by RNA-sequencing analysis. Format: functional.
Test [25] has the same test system. Briefly: Downregulation of hadA gene expression in Mycobacterium bovis BCG at 1 times MIC incubated for 8 hrs by RNA-sequencing analysis. It is filed as functional.
Test [26] has as its system Mycobacterium tuberculosis variant bovis BCG. As to the kind of experiment: Inhibition of cell wall biosynthesis in Mycobacterium bovis BCG assessed as reduction in trehalose monomycolate accumulation at 0.5 times MIC incubated for 12 hrs in presence of [14C]acetate by TLC based autoradiography analysis. Format: functional, organism-based.
Test [27] relates to Mycobacterium tuberculosis variant bovis. As to the kind of experiment: Effect on ctaC-E gene expression in Mycobacterium bovis BCG at 1 times MIC incubated for 8 hrs by RNA-sequencing analysis. It is filed as functional.
The subject of test [28] is Mycobacterium tuberculosis variant bovis BCG. As to the kind of experiment: Inhibition of cell wall biosynthesis in Mycobacterium bovis BCG assessed as reduction in trehalose dimycolate accumulation at 0.5 times MIC incubated for 12 hrs in presence of [14C]acetate by TLC based autoradiography analysis. It is filed as functional, organism-based.
Test [29] deals with Mycobacterium tuberculosis variant bovis. As to the kind of experiment: Upregulation of mbtB gene expression in Mycobacterium bovis BCG at 1 times MIC incubated for 8 hrs by RNA-sequencing analysis. It is filed as functional.

Turning to `Brc1cc(Br)cc([C@H]2C[C@@H](CN3CCCC3)N2Cc2ccccc2Br)c1` (racemic), in test [1], the inhibition entry was “Active”.

With `CNC[C@@H]1C[C@H](c2ccc(OC(F)(F)F)cc2)N1Cc1ccccc1OC(F)(F)F` (racemic), the result in test [2], in test [3], in [4], in [5], in test [6] and in test [7] was Active. The outcome in test [8], in [9], in test [10], in test [11], in test [12] and in test [13] was Active. In addition, the outcome in test [15], in [16], in test [17], in test [18], in test [19] and in test [20] was Active. Further, the outcome in test [21], in test [24], in test [25], in test [27] and in test [29] was Active. Also, the inhibition result in [1], in test [14], in [23], in [26] and in test [28] was “Active” each time. For the same molecule, the inhibition result in [22] is “inactive”.
